Tests used:
clinical = conditions: human
[1] = Absolute bioavailability in human; format: ADME, organism-based; conditions: in vivo
[2] = Octanol-water partition coefficient, log P of the compound; format: physicochemical
[3] = caco-2
[4] = Dissociation constant, pKa of the compound; format: physicochemical
[5] = human

Structure (SMILES)	Papp (clinical) [×10⁻⁶ cm/s]	bioavailability [1] [%]	logP ([2]; read-out: logP)	Daq [3] [×10⁻⁶ cm2/s]	pKa [4]	logP [2]	permeability [5] [×10⁻⁴ cm/s]
OC[C@H]1OC(O)[C@H](O)[C@@H](O)[C@@H]1O (some centres not stated) [DEXTROSE]	560	100	-0.67	9.4			
O=C(N[C@H](CO)[C@H](O)c1ccc([N+](=O)[O-])cc1)C(Cl)Cl [CHLORAMPHENICOL]		82					
CCC[C@@H]1C[C@@H](C(=O)N[C@@H]([C@H]2O[C@H](SC)[C@H](O)[C@@H](O)[C@H]2O)[C@@H](C)O)N(C)C1 [LINCOMYCIN]		25					
CCCCc1nc(Cl)c(CO)n1Cc1ccc(-c2ccccc2-c2nn[nH]n2)cc1 [LOSARTAN]	114	50	3.74	6.4	2.95		
CC1=C(C(=O)O)N2C(=O)[C@@H](NC(=O)[C@H](N)c3ccccc3)[C@H]2SC1 [CEPHALEXIN ANHYDROUS]				7			
CC(C)NCC(O)c1ccc(NS(C)(=O)=O)cc1 (configuration not stated) [SOTALOL]		95					
CC(C(=O)O)c1cccc(C(=O)c2ccccc2)c1 (configuration not stated) [KETOPROFEN]	840		3.16	8			
C[C@](N)(Cc1ccc(O)c(O)c1)C(=O)O [METHYLDOPA]	10	26	-3	8.8	2.21		
N=C(N)NC(=O)c1nc(Cl)c(N)nc1N [AMILORIDE]	163	50	-0.26	8.4			
NC(CO)C(=O)NNCc1ccc(O)c(O)c1O (configuration not stated) [BENSERAZIDE]	290	70	-1.78	8	6.19		
NC(=O)N1c2ccccc2C=Cc2ccccc21 [CARBAMAZEPINE]	430	90		8.3			
Cn1c(=O)c2c(ncn2C)n(C)c1=O [CAFFEINE]		98					
CC(C)NCC(O)COc1cccc2ccccc12 (configuration not stated) [PROPRANOLOL]		100		8			
CN/C(=N/CCSCc1nc[nH]c1C)NC#N [CIMETIDINE]	26	60		8.1	6.76		
CC1=C(/C=C/C(C)=C/C=C/C(C)=C/C(=O)O)C(C)(C)CCC1 [TRETINOIN]	99	90		7.5			
CC(C)n1c(/C=C/C(O)CC(O)CC(=O)O)c(-c2ccc(F)cc2)c2ccccc21 (configuration not stated) [FLUVASTATIN]	238	95		6.5			
NC(N)=O [UREA]	140		-1.64	15.5			
O [WATER]	140			26.7			
O=c1c(O[C@@H]2O[C@H](CO)[C@@H](O)[C@H](O)[C@H]2O)c(-c2ccc(O[C@@H]3O[C@H](CO)[C@@H](O)[C@H](O)[C@H]3O)c(O)c2)oc2cc(O)cc(O)c12	890	60	3.24	6.1	6.9		
O=C(O)c1ccccc1O [SALICYLIC ACID]	267	100		10.6			
COc1cc(Cc2cnc(N)nc2N)cc(OC)c1OC [TRIMETHOPRIM]		98					
CN1CC(=O)NC1=N [CREATININE]	29	80		11.6	4.66	-3	
CC(C)[C@H](N)C(=O)OCCOCn1cnc2c(=O)[nH]c(N)nc21 [VALACYCLOVIR]	166	80	-1.04	7.2	7.4		
NS(=O)(=O)c1cc(C(=O)O)c(NCc2ccco2)cc1Cl [FUROSEMIDE]				7.1			
CCOC(=O)[C@H](CCc1ccccc1)N[C@@H](C)C(=O)N1CCC[C@H]1C(=O)O	157	51	-1.39	6.7	2.92		
CC(=O)Nc1ccc(O)cc1 [ACETAMINOPHEN]		85		10.2	9.63		1.76
COc1cc([C@@H]2c3cc4c(cc3[C@@H](O[C@@H]3O[C@@H]5CO[C@@H](C)O[C@H]5[C@H](O)[C@H]3O)[C@H]3COC(=O)[C@H]23)OCO4)cc(OC)c1O [ETOPOSIDE]		52					
CC1COc2c(N3CCN(C)CC3)c(F)cc3c(=O)c(C(=O)O)cn1c23 (configuration not stated) [OFLOXACIN]		90					
